# Assay results as given in article doi:10.1101/2022.05.12.491652v1 (biorxiv, 2022).
# Experiments:
# in vitro = conditions: human, hela cells
# PfClpQ = target: T1, PfClpQ (Plasmodium falciparum, UniProt Q8I5B6); experiment: fluorogenic peptide; assay type: biochemical
# T1 sequence (Q8I5B6 38-207): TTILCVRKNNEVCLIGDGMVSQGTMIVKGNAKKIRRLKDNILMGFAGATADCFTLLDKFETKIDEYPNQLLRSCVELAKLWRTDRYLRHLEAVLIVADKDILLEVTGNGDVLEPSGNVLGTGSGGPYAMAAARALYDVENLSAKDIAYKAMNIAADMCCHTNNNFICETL
Ki (PfClpQ) [µM],Compound,CC50 (in vitro) [µM]
–,"Cn1nc(-c2ccncc2)nc2c(=O)n(C)c(=O)nc1-2 [ICGEB-L1, 1,6-dimethyl-3-(pyridin-4-yl)-1H,5H,6H,7H-pyrimido[5,4-e][1,2,4]triazine-5,7-dione]",8.4
0.44,"CCn1nc(-c2ccc(C(=O)OC)cc2)nc2c(=O)n(C)c(=O)nc1-2 [CN172, methyl 4-{1-ethyl-6-methyl-5,7-dioxopyrimido[5,4-e][1,2,4]triazin-3-yl}benzoate]",9.58
–,"CCn1nc(/C=C/c2ccccc2)[n+]([O-])c2c(=O)n(C)c(=O)nc1-2 [ICGEB-L3, 1-ethyl-6-methyl-5,7-dioxo-3-[(1E)-2-phenylethenyl]-1H,5H,6H,7H-pyrimido[5,4-e][1,2,4]triazin-4-ium-4-olate]",10
–,"CCn1nc(-c2ccc(Cl)cc2)nc2c(=O)n(C)c(=O)nc1-2 [ICGEB-L2, 3-(4-chlorophenyl)-1-ethyl-6-methyl-1H,5H,6H,7H-pyrimido [5,4-e] [1,2,4] triazine-5,7-dione]",9.93
